One assay has as its system H4-IIE Cells. Nature of the assay: Glucose production in cultured H4-IIE cells. Conditions: glucose concentration in medium relative to untreated cells; 5 μM peptide, 24 h. The format is cell-based, rat. A digest of the protocol: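 Rat H4-IIE hepatoma cells primed overnight in glucose-free DMEM with 2 mM pyruvate and 10 mM lactate, then treated 24 h at 37 °C with 5 μM peptide (0.1% DMSO; concentration assumes ~2000 Da). Medium glucose measured colorimetrically at 570 nm. Values are percent of untreated-cell glucose production; 0.5-1 nM insulin served as inhibitor reference.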

The subject of another assay is 3T3-L1 Mouse Adipocytes. In words: Free fatty acid levels in cultured 3T3-L1 mouse adipocytes (isoproterenol stimulated). Conditions: free fatty acid in medium; 5 μM peptide, 20-22 h pre-incubation then 3 h with 0.1 nM isoproterenol; isoproterenol alone = 100%. The format is cell-based. The method, boiled down: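 3T3-L1 cells differentiated 12 days, insulin withdrawn, then peptides added on day 13 at 5 μM (0.1% DMSO) for 20-22 h at 37° C. After 3 h in assay buffer, medium free fatty acids read at 540 nm. Values expressed as percent of 0.1 nM isoproterenol-alone control.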

Another assay relates to C2C12 Cells. Nature of the assay: Glucose utilization in cultured C2C12 cells (myotubes). The format is cell-based, mouse. The conditions noted are these: glucose concentration in medium relative to untreated cells; 5 μM peptide, 22 h. A digest of the protocol: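 Differentiated mouse myotubes (5 days in 2% horse serum) serum-starved 5 h, then treated 22 h at 37 °C with peptide at 5 μM final (0.1% DMSO) in low-glucose (1 g/L) DMEM. Glucose remaining in medium measured colorimetrically at 570 nm. Expressed as percent of untreated control, from 2–3 experiments in triplicate.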

For 177 (MRMGASIGSTTRLSTS) [compound 177], the “Percent of Control Activity” value was found to be 111% in the assay with H4-IIE Cells and 91% in the assay on C2C12 Cells. Moreover, the “Percent of Isoproterenol Control Activity” value in the assay on 3T3-L1 Mouse Adipocytes is 94%.

Turning to “178 (MVQTVSISWASEMLVLVSFVVSV) [compound 178]”, the results for the “Percent of Control Activity” value in the assay on H4-IIE Cells and in the assay on C2C12 Cells were 108% and 99%, respectively. Also, the “Percent of Isoproterenol Control Activity” value in the assay with 3T3-L1 Mouse Adipocytes came to 90%.

On to 179 (MSSSMMGEVASC) [compound 179], for which the “Percent of Control Activity” value with H4-IIE Cells was found to be 100%; in the assay on C2C12 Cells, 105%. Moreover, the “Percent of Isoproterenol Control Activity” value with 3T3-L1 Mouse Adipocytes was determined as 102%.

As to 180 (MVVGSWCWSLSWVVGMR) [compound 180], the “Percent of Control Activity” value with H4-IIE Cells is reported as 106%; with C2C12 Cells it was 103%. In the assay on 3T3-L1 Mouse Adipocytes, the “Percent of Isoproterenol Control Activity” value is 101%.

As for 181 (MCHWAGGASNTGDA) [compound 181], the “Percent of Control Activity” value in the assay on H4-IIE Cells amounted to 109%; with C2C12 Cells, 107%. In the assay with 3T3-L1 Mouse Adipocytes, the “Percent of Isoproterenol Control Activity” value is listed as 103%.

Turning to 182 (MFAVSMMWSLE) [compound 182], the “Percent of Control Activity” value worked out at 113% with H4-IIE Cells and 98% in the assay on C2C12 Cells. The “Percent of Isoproterenol Control Activity” value with 3T3-L1 Mouse Adipocytes is reported as 92%.

Take 183 (MMKVDATMDFT) [compound 183]: the “Percent of Control Activity” value with H4-IIE Cells is listed as 121%; in the assay on C2C12 Cells it was 101%. Besides, in the assay with 3T3-L1 Mouse Adipocytes, the “Percent of Isoproterenol Control Activity” value worked out at 94%.

For the substance 184 (MASAKGCSSP) [compound 184], the “Percent of Control Activity” value in the assay on H4-IIE Cells was found to be 118%; with C2C12 Cells, 106%. In the assay on 3T3-L1 Mouse Adipocytes, the “Percent of Isoproterenol Control Activity” value came to 104%.

On to 185 (MLVMLEVMFLVN) [compound 185], for which the “Percent of Control Activity” value with H4-IIE Cells is 119%; with C2C12 Cells, 92%. Further, the “Percent of Isoproterenol Control Activity” value with 3T3-L1 Mouse Adipocytes worked out at 86%.

With “186 (MIINDEYWLVVLVMVHCPESMLLK) [compound 186]”, the “Percent of Control Activity” value with H4-IIE Cells stood at 115%; in the assay on C2C12 Cells it was 94%. Moreover, in the assay with 3T3-L1 Mouse Adipocytes, the “Percent of Isoproterenol Control Activity” value is 105%.

Take “187 (AYEGCCYSCKQEDNADVSGFWVEK) [compound 187]”: the “Percent of Control Activity” value with H4-IIE Cells was 113%; in the assay with C2C12 Cells it was 110%. Besides, the “Percent of Isoproterenol Control Activity” value in the assay on 3T3-L1 Mouse Adipocytes is listed as 102%.

As to “188 (DWSNWVWGVQLYVWDFLGSGCWAW) [compound 188]”, the “Percent of Control Activity” value in the assay with H4-IIE Cells came out at 125%; with C2C12 Cells, 113%. Moreover, the “Percent of Isoproterenol Control Activity” value in the assay with 3T3-L1 Mouse Adipocytes amounted to 104%.

For “189 (FEELINVWVWVYMSQWEFYDGPCN) [compound 189]”, the “Percent of Control Activity” value turned out to be 116% in the assay on H4-IIE Cells and 98% with C2C12 Cells. Moreover, in the assay on 3T3-L1 Mouse Adipocytes, the “Percent of Isoproterenol Control Activity” value was determined as 95%.

As to “190 (MYHSENSMMDHVTNNATGMNIMEK) [compound 190]”, the “Percent of Control Activity” value was determined as 118% with H4-IIE Cells and 107% in the assay on C2C12 Cells. In the assay on 3T3-L1 Mouse Adipocytes, the “Percent of Isoproterenol Control Activity” value worked out at 101%.

For “191 (LGWGWPGGWVWGGGFMVEERWWEL) [compound 191]”, the “Percent of Control Activity” value in the assay on H4-IIE Cells came out at 111%; in the assay on C2C12 Cells, 95%. The “Percent of Isoproterenol Control Activity” value in the assay with 3T3-L1 Mouse Adipocytes is given as 101%.

“192 (LGWVVGSFFMGGVWVGRSGIGGML) [compound 192]”: the “Percent of Control Activity” value with H4-IIE Cells stood at 110%; with C2C12 Cells, 98%. Also, the “Percent of Isoproterenol Control Activity” value in the assay with 3T3-L1 Mouse Adipocytes worked out at 104%.

Turning to “193 (LHNNPNPNTNYLPNWKQNTQMGLS) [compound 193]”, the “Percent of Control Activity” value in the assay on H4-IIE Cells and with C2C12 Cells was 110% throughout. In the assay on 3T3-L1 Mouse Adipocytes, the “Percent of Isoproterenol Control Activity” value was 105%.

Consider “194 (LSPKPQQLNQQNCSPEHYEPQLKT) [compound 194]”, for which the “Percent of Control Activity” value was 109% in the assay with H4-IIE Cells and 92% in the assay with C2C12 Cells. Besides, the “Percent of Isoproterenol Control Activity” value with 3T3-L1 Mouse Adipocytes stood at 103%.

In the case of “195 (LTSKYSNQPSTITHQLQLQSHPSP) [compound 195]”, the “Percent of Control Activity” value in the assay with H4-IIE Cells is 108%; in the assay with C2C12 Cells it was 112%. Moreover, the “Percent of Isoproterenol Control Activity” value in the assay with 3T3-L1 Mouse Adipocytes was determined as 110%.

With “196 (LVPFDRGDLEGELTGTGMLACVIL) [compound 196]”, the “Percent of Control Activity” value in the assay on H4-IIE Cells was 116%; in the assay on C2C12 Cells, 97%. Moreover, the “Percent of Isoproterenol Control Activity” value in the assay on 3T3-L1 Mouse Adipocytes is 98%.

In the case of “197 (WVEVMMEVEIWCCEIVLGNSFSSQ) [compound 197]”, the figures for the “Percent of Control Activity” value with H4-IIE Cells and in the assay on C2C12 Cells were 105% and 102%, respectively. For the same substance, the “Percent of Isoproterenol Control Activity” value with 3T3-L1 Mouse Adipocytes stood at 100%.

Regarding “198 (PIVTIMSPSWLEVEKATIFLMSFC) [compound 198]”, the “Percent of Control Activity” value was 100% in the assay on H4-IIE Cells and 88% with C2C12 Cells. Also, the “Percent of Isoproterenol Control Activity” value in the assay on 3T3-L1 Mouse Adipocytes worked out at 112%.

In the case of “199 (PLCKIHCRIHLYYQSLPHNNIHVP) [compound 199]”, the “Percent of Control Activity” value stood at 111% with H4-IIE Cells and 94% in the assay on C2C12 Cells. Further, in the assay on 3T3-L1 Mouse Adipocytes, the “Percent of Isoproterenol Control Activity” value was 105%.

Consider “200 (RLLAWGNTWWQLLWNEGLFFWLEL) [compound 200]”, for which the entries for the “Percent of Control Activity” value with H4-IIE Cells and with C2C12 Cells were 97% and 93%, respectively. Also, in the assay on 3T3-L1 Mouse Adipocytes, the “Percent of Isoproterenol Control Activity” value amounted to 104%.

In the case of “201 (TKNFHQTPPPPLLATALKHISAKP) [compound 201]”, the entries for the “Percent of Control Activity” value in the assay on H4-IIE Cells and with C2C12 Cells were 109% and 96%, respectively. For the same substance, in the assay on 3T3-L1 Mouse Adipocytes, the “Percent of Isoproterenol Control Activity” value is given as 102%.

As to “202 (MWVIEEYAKILRSWVWFNPPQLPA) [compound 202]”, the “Percent of Control Activity” value with H4-IIE Cells worked out at 103%; in the assay on C2C12 Cells it was 89%. In addition, in the assay with 3T3-L1 Mouse Adipocytes, the “Percent of Isoproterenol Control Activity” value amounted to 93%.

As to 203 (KNIEAPLAW) [compound 203], the “Percent of Control Activity” value in the assay with H4-IIE Cells worked out at 102%; in the assay with C2C12 Cells, 98%. In addition, the “Percent of Isoproterenol Control Activity” value in the assay with 3T3-L1 Mouse Adipocytes is listed as 107%.

With 204 (RMGASIGSTTRLSTS) [compound 204], the entries for the “Percent of Control Activity” value in the assay with H4-IIE Cells and with C2C12 Cells were 107% and 95%, respectively. The “Percent of Isoproterenol Control Activity” value with 3T3-L1 Mouse Adipocytes amounted to 111%.

Turning to “205 (VQTVSISWASEMLVLVSFVVSV) [compound 205]”, the “Percent of Control Activity” value is reported as 102% with H4-IIE Cells and 99% in the assay on C2C12 Cells. The “Percent of Isoproterenol Control Activity” value with 3T3-L1 Mouse Adipocytes amounted to 105%.

Consider 206 (SSSMMGEVASC) [compound 206], for which the “Percent of Control Activity” value with H4-IIE Cells was 106%; in the assay on C2C12 Cells, 99%. Further, the “Percent of Isoproterenol Control Activity” value in the assay with 3T3-L1 Mouse Adipocytes came to 95%.

For 207 (VVGSWCWSLSWVVGMR) [compound 207], the “Percent of Control Activity” value in the assay with H4-IIE Cells is reported as 103%; with C2C12 Cells it was 90%. Further, the “Percent of Isoproterenol Control Activity” value in the assay on 3T3-L1 Mouse Adipocytes is given as 98%.

For 208 (CHWAGGASNTGDA) [compound 208], the results for the “Percent of Control Activity” value in the assay on H4-IIE Cells and in the assay with C2C12 Cells were 107% and 89%, respectively. In addition, the “Percent of Isoproterenol Control Activity” value in the assay with 3T3-L1 Mouse Adipocytes is 103%.

Turning to 209 (FAVSMMWSLE) [compound 209], the “Percent of Control Activity” value is recorded as 104% in the assay on H4-IIE Cells and 102% with C2C12 Cells. The “Percent of Isoproterenol Control Activity” value in the assay with 3T3-L1 Mouse Adipocytes stood at 97%.

In the case of 210 (MKVDATMDFT) [compound 210], the “Percent of Control Activity” value in the assay with H4-IIE Cells worked out at 100%; with C2C12 Cells, 92%. Moreover, in the assay with 3T3-L1 Mouse Adipocytes, the “Percent of Isoproterenol Control Activity” value was found to be 95%.
